According to patent US5624923A, “Tricyclic diazepine vasopressin antagonists and oxytocin antagonists” (priority 1995, dated 1997):
Like-named read-outs stand apart in the source and are kept apart here.

What was measured:
Rat Hepatic V1 Receptors = molecular target: T1, Rat Hepatic V1 Receptors (Rattus norvegicus, UniProt P30560); assay: Binding Assay to Rat Hepatic V1 Receptors
T1 construct: Rat liver plasma membranes expressing the vasopressin V1 receptor subtypes; from tissue; host or cells: rat liver plasma membranes
T1 sequence (P30560 whole entry): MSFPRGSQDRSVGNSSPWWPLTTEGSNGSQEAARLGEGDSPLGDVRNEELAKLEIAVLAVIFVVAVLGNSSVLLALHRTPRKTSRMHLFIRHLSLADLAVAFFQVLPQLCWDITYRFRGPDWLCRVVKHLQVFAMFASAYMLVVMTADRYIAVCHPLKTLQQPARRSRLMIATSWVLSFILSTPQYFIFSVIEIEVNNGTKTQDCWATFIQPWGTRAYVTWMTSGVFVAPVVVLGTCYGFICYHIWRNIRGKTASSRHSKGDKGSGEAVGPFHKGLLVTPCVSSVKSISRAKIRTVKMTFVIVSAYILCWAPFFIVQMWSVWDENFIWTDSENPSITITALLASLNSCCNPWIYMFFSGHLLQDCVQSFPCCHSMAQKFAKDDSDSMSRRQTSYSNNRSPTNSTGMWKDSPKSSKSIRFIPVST

[1] = molecular target: T2, Rat Kidney Medullary V2 Receptors (Rattus norvegicus, UniProt Q00788); assay: Binding Assay to Rat Kidney Medullary V2 Receptors; conditions: for IC50: rat kidney medulla membranes, read-out: V2 IC50
T2 construct: Medullary tissues from rat kidneys are dissected out; from tissue; host or cells: rat kidney medulla membranes
T2 sequence (Q00788 whole entry): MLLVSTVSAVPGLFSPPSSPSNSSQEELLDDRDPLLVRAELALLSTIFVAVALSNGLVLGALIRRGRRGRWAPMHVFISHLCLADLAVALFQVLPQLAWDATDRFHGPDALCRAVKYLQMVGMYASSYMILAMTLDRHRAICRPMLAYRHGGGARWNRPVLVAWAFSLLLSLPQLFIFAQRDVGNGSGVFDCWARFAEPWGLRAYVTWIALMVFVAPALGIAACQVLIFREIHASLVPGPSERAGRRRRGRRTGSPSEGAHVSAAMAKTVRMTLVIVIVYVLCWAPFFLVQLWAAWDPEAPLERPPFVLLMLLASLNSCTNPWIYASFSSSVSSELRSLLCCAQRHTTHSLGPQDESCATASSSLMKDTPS
Procedure, shortened: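 IC50 derived from competition curves; bound tritium counted by liquid scintillation after filtration. Rat medullary kidney membranes (Tris-HCl pH 7.4, BSA, PMSF) were incubated 120 min to equilibrium with radioligand and test compound (added in 50% DMSO). Nonspecific binding: 1.0 μM unlabeled ligand.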

Vasopressin V2 = Vasopressin V2 Antagonist Activity in Conscious Hydrated Rats; type: in vivo, rat; conditions: 10 mg/kg orally, AVP 0.4 μg/kg i.p.
Procedure, shortened: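 Four-hour urine output, osmolality and electrolytes (Na+, K+, Cl−) recorded in water-loaded rats (30 mL/kg deionized water orally) given AVP i.p. at 0.4 μg/kg. Test compounds were given orally at 0.1–100 mg/kg 1 h before AVP; 2–4 rats per compound.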

oxytocin receptors = molecular target: T3, oxytocin receptors (Rattus norvegicus, UniProt P70536); assay: Oxytocin Receptor Binding; conditions: for inhibition at 10 µM: [3H]oxytocin
T3 construct: The uteri are dissected out, cleaned of fat and connective tissues; from tissue; host or cells: uterus of DES-treated female Sprague-Dawley rats
T3 sequence (P70536 1-388): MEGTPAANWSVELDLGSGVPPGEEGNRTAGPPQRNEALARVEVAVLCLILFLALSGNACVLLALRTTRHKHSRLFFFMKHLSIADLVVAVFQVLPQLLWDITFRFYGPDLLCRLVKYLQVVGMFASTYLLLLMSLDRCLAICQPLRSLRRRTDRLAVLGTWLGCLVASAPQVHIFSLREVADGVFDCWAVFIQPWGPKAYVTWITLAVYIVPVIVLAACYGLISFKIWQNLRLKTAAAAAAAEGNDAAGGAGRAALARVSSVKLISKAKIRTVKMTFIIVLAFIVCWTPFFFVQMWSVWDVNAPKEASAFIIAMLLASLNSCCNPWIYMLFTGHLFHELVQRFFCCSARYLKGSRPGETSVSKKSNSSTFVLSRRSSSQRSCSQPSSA
Procedure, shortened: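 IC50 is the concentration displacing 50% of 1.0 nM [3H]OT, incubated 60 min at 22 °C in pH 7.4 Tris/MgCl2 buffer plus protease inhibitors, then filtered. Receptor source: uterine membranes from rats given 0.3 mg/kg DES i.m. 18 h earlier. 1.0 uM cold OT defined non-specific binding.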

[2] = molecular target: T4, V1 Receptor Subtype in Human Platelet (Homo sapiens, UniProt P37288); assay: Binding to Vasopressin V1 receptor subtype in Human Platelet Membranes; conditions: human platelet membranes
T4 construct: tissue Hudson Valley Blood Services, Westchester Medical Center, Valhalla, N.Y; host or cells: human platelets (frozen platelet rich plasma)
T4 sequence (P37288 whole entry): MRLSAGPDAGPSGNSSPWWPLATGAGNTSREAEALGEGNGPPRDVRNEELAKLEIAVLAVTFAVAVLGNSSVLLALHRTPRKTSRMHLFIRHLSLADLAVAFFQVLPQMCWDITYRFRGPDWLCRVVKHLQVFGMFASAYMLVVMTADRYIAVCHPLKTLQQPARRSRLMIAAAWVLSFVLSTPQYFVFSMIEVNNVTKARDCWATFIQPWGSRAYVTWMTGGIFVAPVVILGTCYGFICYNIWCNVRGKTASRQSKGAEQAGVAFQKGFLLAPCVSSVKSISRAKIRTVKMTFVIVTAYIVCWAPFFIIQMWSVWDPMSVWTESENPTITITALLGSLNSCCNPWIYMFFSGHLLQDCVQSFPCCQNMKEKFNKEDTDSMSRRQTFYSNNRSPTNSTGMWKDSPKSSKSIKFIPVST
Method: Radioligand Binding Experiments with Human Platelet Membranes (a) Platelet Membrane Preparation: Frozen platelet rich plasma (PRP), (Platelet Source: Hudson Valley Blood Services, Westchester Medical Center, Valhalla, N.Y.) are thawed to room temperature. The tubes containing the PRP are centrifuged at 16,000×g for 10 min. at 4° C. and the supernatant fluid discarded. […] The suspension is recentrifuged at 16,000× g for 10 min. This washing step is repeated one more time. The wash discarded and the lysed pellets homogenized in low ionic strength buffer of Tris.HCl, 5.0 mM, pH 7.5 containing 5.0 mM EDTA. The homogenate is centrifuged at 39,000× g for 10 min. The resulting pellet is resuspended in Tris. […] The final pellet is resuspended in 50.0 mM Tris. HCl buffer pH 7.4 containing 120 mM NaCl and 5.0 mM KCl to give 1.0-2.0 mg protein per ml of suspension. […] Platelet Membranes […] Then add 20 μl of [^3 H]Ligand (Manning or […] Vasopressin), to give final concentrations ranging from 0.01 to 10.0 nM. Initiate the binding by adding 80.0 μl of platelet suspension (approx. 100 μg protein). Mix all reagents by pipetting the mixture up and down a few times. Non specific binding is measured in the presence of 1.0 μM of unlabeled ligand (Manning or […] Vasopressin). Let the mixture stand undisturbed at room temperature for ninety (90) min. Upon this time, rapidly filter off the incubate under vacuum suction over GF/B filters, using a Brandel Harvester. Determine the radioactivity caught on the filter disks by the addition of liquid scintillant and counting in a liquid scintillator.

[3] = molecular target: T5, Human V2 Vasopressin Receptor (Homo sapiens, UniProt P30518); assay: Binding to Membranes of Mouse Fibroblast Cell Line (LV-2) Transfected with the cDNA Expressing the Human V2 Vasopressin Receptor
T5 construct: expressed in transfected cells; host or cells: mouse fibroblast cell line LV-2
T5 sequence (P30518 whole entry): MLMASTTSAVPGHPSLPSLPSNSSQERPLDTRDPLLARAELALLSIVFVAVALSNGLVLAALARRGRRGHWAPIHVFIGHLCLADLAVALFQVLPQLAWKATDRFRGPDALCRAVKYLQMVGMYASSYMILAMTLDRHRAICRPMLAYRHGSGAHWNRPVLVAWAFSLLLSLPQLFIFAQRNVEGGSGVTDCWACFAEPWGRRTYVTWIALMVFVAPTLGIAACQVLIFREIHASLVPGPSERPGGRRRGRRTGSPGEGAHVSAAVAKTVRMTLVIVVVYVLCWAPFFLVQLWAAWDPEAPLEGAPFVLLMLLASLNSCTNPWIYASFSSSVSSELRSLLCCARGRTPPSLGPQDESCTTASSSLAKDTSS
Method: Binding to Membranes of Mouse Fibroblast Cell Line (LV-2) Transfected with the cDNA Expressing the Human V2 Vasopressin Receptor
Flasks of 175 ml capacity, containing attached cells grown to confluence, are cleared of culture medium by aspiration. The flasks containing the attached cells are rinsed with 2×5 ml of phosphate buffered saline (PBS) and the liquid aspirated off each time. Finally, 5 ml of an enzyme free dissociation Hank's based solution (Specialty Media, Inc., Lafayette, N.J.) is added and the flasks are left undisturbed for 2 min. The content of all flasks is. poured into a centrifuge tube and the cells pelleted at 300× g for 15 min. The Hank's based solution is aspirated off and the cells homogenized with a polytron at setting #6 for 10 sec in 10.0 mM Tris.HCl buffer, pH 7.4 containing 0.25M sucrose and 1.0 mM EDTA. The homogenate is centrifuged at 1500× g for 10 min to remove ghost membranes. The supernatant fluid is centrifuged at 100,000× g for 60 min. to pellet the receptor protein. Upon completion, the pellet is resuspended in a small volume of 50.0 mM Tris. HCl buffer, pH 7.4. The protein content is determined by the Lowry method and the receptor membranes are suspended in 50.0 mM Tris.HCl buffer containing 0.1 mM phenylmethylsulfonylfluoride (PMSF) and 0.2% bovine serum albumin (BSA) to give 2.5 mg receptor protein per ml of suspension.
Arginine^8, vasopressin (S.A. 75.0 Ci/mmole) at 0.8 nM and the reaction initiated by the addition of 80.0 μl of tissue membranes (200.0 μg tissue protein). The plates are left undisturbed on the bench top for 120 min to reach equilibrium. Non specific binding is assessed in the presence of 1.0 μM of unlabeled ligand, added in 20 μl volume. For test compounds, these are solubilized in 50% dimethylsulfoxide (DMSO) and added in 20.0 μl volume to a final incubation volume of 200 μl. Upon completion of binding, the content of each well is filtered off, using a Brandel® cell Harvester (Gaithersburg, Md.). The radioactivity trapped on the filter disk by the ligand-receptor complex is assessed by liquid scintillation counting in a Packard LS Counter, with an efficiency of 65% for tritium. The data are analyzed for IC50 values by the LUNDON-2 program for competition (LUNDON SOFTWARE, Ohio).

[4] = rat liver membranes, read-out: V1 IC50
[5] = LV-2 cell membranes, human V2, read-out: V2 IC50 (**)

## CN(C)CCSC(C(=O)Nc1ccc(C(=O)N2Cc3cccn3Cc3ccccc32)cc1)c1ccccc1 (stereo not drawn) [Example 584, α-[[2-(Dimethylamino)ethyl]thio]-N-[4-(5H-pyrrolo[2,1-c][1,4]benzodiazepin-10(11H)-ylcarbonyl)phenyl]benzeneacetamide]
Rat Hepatic V1 Receptors; [4]
  IC50: 1200 nM
[1]
  IC50: 480 nM
Vasopressin V2
  Osmolality: 1718 mOsm/kg
  Urine Volume: 2.5 ml/4 hrs
Oxytocin receptors
  inhibition at 10 µM: 26%

## CN(C)C(C(=O)Nc1ccc(C(=O)N2Cc3cccn3Cc3ccccc32)cc1)c1ccccc1 (stereo not drawn) [Example 586, α-(Dimethylamino)-N-[4-(5H-pyrrolo[2,1-c][1,4]benzodiazepin-10(11H)-ylcarbonyl)phenyl]benzeneacetamide]
Rat Hepatic V1 Receptors; [4]
  IC50: 450 nM
[1]
  IC50: 230 nM
Vasopressin V2
  Osmolality: 1196 mOsm/kg
  Urine Volume: 4.3 ml/4 hrs
Oxytocin receptors; 1.0 nM [3H]oxytocin
  IC50: 4700 nM
Oxytocin receptors
  inhibition at 10 µM: 61%

## O=C(Nc1ccc(C(=O)N2Cc3ccc(C(=O)C(Cl)(Cl)Cl)n3Cc3ccccc32)cc1)c1ccccc1C(F)(F)F [Example 597]
Rat Hepatic V1 Receptors; 2 h, 10 μM, rat
  inhibition at 10 µM: 100%
[1]; 10 μM, rat
  inhibition at 10 µM: 97%
Vasopressin V2
  Osmolality: 1250 mOsm/kg
  Urine Volume: 5.3 ml/4 hrs
Oxytocin receptors
  inhibition at 10 µM: 42%

## Cc1c(F)cccc1C(=O)Nc1ccc(C(=O)N2CCc3cccn3-c3ccccc32)c(Cl)c1 [Example 611, N-[4-[(6,7-Dihydro-5H-pyrrolo[1,2-a]-[1,5]benzodiazepin-5-yl)carbonyl]-3-chlorophenyl]-3-fluoro-2-methyl-benzamide]
[2]
  IC50: 500 nM
[3]; [5]
  IC50: 4 nM

## Cc1ccc(F)cc1C(=O)Nc1ccc(C(=O)N2CCc3cccn3-c3ccccc32)c(Cl)c1 [Example 612, N-[4-[(6,7-Dihydro-5H-pyrrolo[1,2-a]-[1,5]benzodiazepin-5-yl)carbonyl]-3-chlorophenyl]-5-fluoro-2-methyl-benzamide]
[2]
  IC50: 1700 nM
[3]; [5]
  IC50: 10 nM

## Cc1ccccc1C(=O)Nc1ccc(C(=O)N2Cc3ccc(CN(C)C)n3Cc3ccccc32)c(Cl)c1 [Example 669, N-[4-[[3-[(dimethylamino)methyl]-5H-pyrrolo[2,1-c][1,4]benzodiazepin-10(11H)-yl]carbonyl]-3-chlorophenyl]-2-methylbenzamide]
[2]
  IC50: 71 nM
[3]; [5]
  IC50: 35 nM

## O=Cc1cccn1CC(=O)Nc1ccc(C(=O)N2Cc3cccn3Cc3ccccc32)cc1 [Example 685, N-[4-(5H-Pyrrolo[2,1-c][1,4]benzodiazepin-10(11H)-ylcarbonyl)phenyl]-2-(2-formyl-1-pyrrolo)acetamide]
[2]
  IC50: 61 nM
[3]; [5]
  IC50: 61 nM

## CC(=O)Oc1ccccc1C(=O)Nc1ccc(C(=O)N2Cc3cccn3Cc3ccccc32)cc1 [Example 688, N-[4-(5H-pyrrolo[2,1-c][1,4]benzodiazepin-10(11H)-ylcarbonyl)phenyl]-2-(acetoxy)benzamide]
[2]
  IC50: 69 nM
[3]; [5]
  IC50: 34 nM

## O=C(Nc1ccc(C(=O)N2Cc3cccn3Cc3ccccc32)cc1)c1ccccc1O [Example 689, N-[4-(5H-pyrrolo[2,1-c][1,4]benzodiazepin-10(11H-)-ylcarbonyl)phenyl]-2-hydroxybenzamide]
[2]
  IC50: 85 nM
[3]; [5]
  IC50: 540 nM

## O=C(Nc1ccc(C(=O)N2Cc3cccn3Cc3ccccc32)cc1)c1cccc2ccccc12 [Example 690, N-[4-(5H-pyrrolo[2,1-c][1,4]benzodiazepin-10(11H)-ylcarbonyl)phenyl]-1-naphthylcarboxamide]
[2]
  IC50: 220 nM
[3]; [5]
  IC50: 22 nM

## Cc1ccccc1C(=O)Nc1ccc(C(=O)N2Cc3cccn3Cc3ccccc32)c(C)c1 [Example 691, N-[4-(5H-pyrrolo[2,1-c][1,4]benzodiazepin-10(11H)-ylcarbonyl)-3-methylphenyl]-2-methylbenzamide]
[2]
  IC50: 72 nM
[3]; [5]
  IC50: 2.9 nM

## O=C(Nc1ccc(C(=O)N2Cc3cccn3Cc3ccccc32)cc1)c1ccc(F)cc1Cl [Example 692, N-[4-(5H-pyrrolo[2,1-c][1,4]benzodiazepin-10(11H)-ylcarbonyl)phenyl]-2-chloro-4-fluorobenzamide]
[2]
  IC50: 7 nM
[3]; [5]
  IC50: 4 nM

## O=C(Nc1ccc(C(=O)N2Cc3cccn3Cc3ccccc32)cc1)c1ccc(F)cc1C(F)(F)F [Example 693, N-[4-(5H-pyrrolo[2,1-c][1,4]benzodiazepin-10(11H)-ylcarbonyl)phenyl]-2-(trifluoromethyl)-4-fluorobenzamide]
[2]
  IC50: 21 nM
[3]; [5]
  IC50: 5 nM

## Cc1ccc(F)cc1C(=O)Nc1ccc(C(=O)N2Cc3cccn3Cc3ccccc32)c(C)c1 [Example 694, N-[4-(5H-pyrrolo[2,1-c][1,4]benzodiazepin-10(11H)-ylcarbonyl)-3-methylphenyl]-5-fluoro-2-methylbenzamide]
Rat Hepatic V1 Receptors
  IC50: 120 nM
[3]
  IC50: 1.7 nM

## COc1cc(NC(=O)c2cc(F)ccc2C)ccc1C(=O)N1Cc2cccn2Cc2ccccc21 [Example 695]
[2]
  IC50: 15 nM
[3]; [5]
  IC50: 1.8 nM

## Cc1ccc(C)c(C(=O)Nc2ccc(C(=O)N3Cc4cccn4Cc4ccccc43)c(Cl)c2)c1 [Example 701, N-[4-(5H-pyrrolo[2,1-c][1.4]benzodiazepin-10(11H)-ylcarbonyl)-3-chloro-phenyl]-2,5-dimethylbenzamide]
[1]; 1 μM, rat
  inhibition at 1 µM: 100%
[2]
  IC50: 340 nM
